In patent publication US11873287B2, “Piperidine-2,6-dione derivatives and ulcerative colitis treating” (TIANJIN HEMAY PHARMACEUTICAL SCI-TECH CO., LTD, priority 2016, dated 2024):

Columns and labels:
ICR mice = assay: Acute toxicity experiment of single oral administration in mice; assay type: in vivo; conditions: 1000 mg/Kg single oral dose
Experimental: The mice were fasted one day before the experiment. On the day of the experiment, 6 mice (ICR mice, body weight of 19-21 g, three females and three males) were selected in each experiment group. First of all, one female and one male were selected to orally give 1000 mg/Kg, and observed for 5-10 minutes. If there were no obvious side effects, the remaining 4 animals were orally given the same dose, and observed for 10-15 minutes. If no animal died, the animals were placed in a box to balancedly feed for 7 days. The state was observed and the body weight was recorded daily.
Observation Indexes within 0-15 Minutes After Administration
Activity: restlessness, hyperactivity
Nervous system response: tremor, spasm, convulsion, ataxia, posture abnormality, etc.
Autonomic nerve: exophthalmos, salivation, tears, urination (hematuria), diarrhea, piloerection, breathing, etc.
Observation Indexes Over 7 Days
State of Animal: lethargy, hyperactivity, excitement, hair loss, diarrhea, abnormal behavior, death, etc.

[1] = system: DSS-Induced inflammatory Bowel Disease Models in Mice; assay: DSS-induced inflammatory bowel disease model in mice (Biological Example 3, 1.0-1.5% DSS); assay type: in vivo, C57BL/6 mice; conditions: 30 mg/Kg i.g. Q.D; for Average Length of Colon (Mean ± SD) / Inhibitory Rate of Colonic Reduction: DSS 1.0% days 0-4, 1.5% days 5-9
Experimental: (§1) 40 healthy female C57BL/6 mice having weight of 16-19 g were randomly divided into 4 groups in accordance with weight. There were 10 mice in each group (see Table 6 below). The first day of the experiment was recorded as Day 0. The administration regimen and induction regimen were detailed in Table 6. The change in weight of experimental animals was recorded every day. […] Samples of animal colonic tissues were obtained to measure the length. One-way ANOVA analysis of mice weights was performed by SPSS22. Statistical analyses between groups were performed. Mann-Whitney U non-parametric test was performed on the length of colon.
(§2) Calculation Formula of Inhibitory Rate of Colonic Reduction: (Length of Colon in Administration Group−Length of Colon in Model Group)/(Length of Colon in Blank Group−Length of Colon in Model Group)

[2] = system: DSS-Induced inflammatory Bowel Disease Models in Mice; assay: DSS-induced inflammatory bowel disease model in mice (Biological Example 5, 1.3% DSS); assay type: in vivo, C57BL/6 mice; conditions: 30 mg/Kg i.g. Q.D, 1.3% DSS days 0-5; for inhibition in vivo at 30 mg/kg: Mus musculus, po, read-out: Inhibitory Rate of Colonic Reduction
Experimental: as §1
The experimental method used in the present biological example is identical to those in Biological Example 3.
One-way ANOVA analysis of mice body weights and colonic weights per length was performed by SPSS22. Statistical analyses between groups were performed.
as §2

## COCCN1C(=O)CCC(N2C(=O)c3cccc(F)c3C2=O)C1=O (stereo not shown) [Example 4, 4-fluoro-2-(1-(2-methoxyethyl)-2,6-dioxopiperidin-3-yl)isoindolin-1,3-dione]
ICR mice; Day 1
  Daily Body Weight of Tested Female Mice (Mean ± SD): 18.4 ± 0.4 g
  Daily Body Weight of Tested Male Mice (Mean ± SD): 17.6 ± 0.2 g
ICR mice; Day 2
  Daily Body Weight of Tested Female Mice (Mean ± SD): 21.8 ± 0.5 g
  Daily Body Weight of Tested Male Mice (Mean ± SD): 22.2 ± 0.3 g
ICR mice; Day 3
  Daily Body Weight of Tested Female Mice (Mean ± SD): 23.2 ± 0.6 g
  Daily Body Weight of Tested Male Mice (Mean ± SD): 23.6 ± 0.6 g
ICR mice; Day 4
  Daily Body Weight of Tested Female Mice (Mean ± SD): 23.5 ± 1.2 g
  Daily Body Weight of Tested Male Mice (Mean ± SD): 24.7 ± 0.6 g
ICR mice; Day 5
  Daily Body Weight of Tested Female Mice (Mean ± SD): 24.7 ± 0.9 g
  Daily Body Weight of Tested Male Mice (Mean ± SD): 26.7 ± 0.4 g
ICR mice; Day 6
  Daily Body Weight of Tested Female Mice (Mean ± SD): 24.2 ± 1.2 g
  Daily Body Weight of Tested Male Mice (Mean ± SD): 27.6 ± 0.8 g
ICR mice; Day 7
  Daily Body Weight of Tested Female Mice (Mean ± SD): 24.0 ± 0.8 g
  Daily Body Weight of Tested Male Mice (Mean ± SD): 28.2 ± 0.1 g
[1]
  body weights compared with model control group: higher than that of the model control group
  Average Length of Colon (Mean ± SD): 6.3 ± 0.3 cm
  Inhibitory Rate of Colonic Reduction: 54.5%
[1]; Day 0
  Body Weights of Experimental Mice (Mean ± SD): 17.4 ± 1.3 g
[1]; Day 1
  Body Weights of Experimental Mice (Mean ± SD): 17.6 ± 1.1 g
[1]; Day 2
  Body Weights of Experimental Mice (Mean ± SD): 18.0 ± 0.9 g
[1]; Day 3
  Body Weights of Experimental Mice (Mean ± SD): 17.8 ± 1.0 g
[1]; Day 4
  Body Weights of Experimental Mice (Mean ± SD): 17.9 ± 0.9 g
[1]; Day 5
  Body Weights of Experimental Mice (Mean ± SD): 18.1 ± 1.1 g
[1]; Day 6
  Body Weights of Experimental Mice (Mean ± SD): 17.7 ± 0.9 g
[1]; Day 7
  Body Weights of Experimental Mice (Mean ± SD): 18.1 ± 0.9 g
[1]; Day 8
  Body Weights of Experimental Mice (Mean ± SD): 17.8 ± 0.8 g
[1]; Day 9
  Body Weights of Experimental Mice (Mean ± SD): 17.6 ± 0.8 g
[1]; Day 10
  Body Weights of Experimental Mice (Mean ± SD): 17.0 ± 0.7 g
[1]; Day 11
  Body Weights of Experimental Mice (Mean ± SD): 16.7 ± 0.7 g
[1]; Day 12
  Body Weights of Experimental Mice (Mean ± SD): 17.0 ± 0.9 g

## COCCN1C(=O)CCC(N2C(=O)c3ccc(N)cc3C2=O)C1=O (stereo not shown) [Example 7, 5-amino-2-(1-(2-methoxyethyl)-2,6-dioxopiperidin-3-yl)isoindolin-1,3-dione]
[1]
  body weights compared with model control group: higher than that of the model control group
  Average Length of Colon (Mean ± SD): 6.4 ± 0.4 cm
  Inhibitory Rate of Colonic Reduction: 63.6%
[1]; Day 0
  Body Weights of Experimental Mice (Mean ± SD): 17.4 ± 0.8 g
[1]; Day 1
  Body Weights of Experimental Mice (Mean ± SD): 17.5 ± 0.7 g
[1]; Day 2
  Body Weights of Experimental Mice (Mean ± SD): 18.2 ± 0.8 g
[1]; Day 3
  Body Weights of Experimental Mice (Mean ± SD): 17.8 ± 0.8 g
[1]; Day 4
  Body Weights of Experimental Mice (Mean ± SD): 17.7 ± 0.7 g
[1]; Day 5
  Body Weights of Experimental Mice (Mean ± SD): 17.9 ± 0.8 g
[1]; Day 6
  Body Weights of Experimental Mice (Mean ± SD): 17.8 ± 0.8 g
[1]; Day 7
  Body Weights of Experimental Mice (Mean ± SD): 17.9 ± 0.8 g
[1]; Day 8
  Body Weights of Experimental Mice (Mean ± SD): 17.4 ± 0.7 g
[1]; Day 9
  Body Weights of Experimental Mice (Mean ± SD): 17.4 ± 0.7 g
[1]; Day 10
  Body Weights of Experimental Mice (Mean ± SD): 16.8 ± 0.9 g
[1]; Day 11
  Body Weights of Experimental Mice (Mean ± SD): 16.8 ± 1.0 g
[1]; Day 12
  Body Weights of Experimental Mice (Mean ± SD): 17.3 ± 1.0 g

## C[S+]([O-])CCN1C(=O)CCC(N2C(=O)c3cccc(N)c3C2=O)C1=O (stereo not shown) [Example 12, 4-amino-2-(1-(2-methylsulfinylethyl)-2,6-dioxopiperidin-3-yl)isoindolin-1,3-dione]
[2]
  Length (cm, Mean ± SD) of colon: 7.0 ± 0.5 cm
  inhibition in vivo at 30 mg/kg: 109%
ICR mice; Day 1
  Daily Body Weight of Tested Female Mice (Mean ± SD): 18.7 ± 0.7 g
  Daily Body Weight of Tested Male Mice (Mean ± SD): 18.5 ± 0.2 g
ICR mice; Day 2
  Daily Body Weight of Tested Female Mice (Mean ± SD): 21.8 ± 0.6 g
  Daily Body Weight of Tested Male Mice (Mean ± SD): 24.3 ± 0.6 g
ICR mice; Day 3
  Daily Body Weight of Tested Female Mice (Mean ± SD): 22.6 ± 0.1 g
  Daily Body Weight of Tested Male Mice (Mean ± SD): 24.9 ± 0.1 g
ICR mice; Day 4
  Daily Body Weight of Tested Female Mice (Mean ± SD): 22.6 ± 0.0 g
  Daily Body Weight of Tested Male Mice (Mean ± SD): 24.9 ± 0.1 g
ICR mice; Day 5
  Daily Body Weight of Tested Female Mice (Mean ± SD): 23.7 ± 0.6 g
  Daily Body Weight of Tested Male Mice (Mean ± SD): 26.1 ± 0.7 g
ICR mice; Day 6
  Daily Body Weight of Tested Female Mice (Mean ± SD): 25.3 ± 1.0 g
  Daily Body Weight of Tested Male Mice (Mean ± SD): 27.8 ± 0.7 g
ICR mice; Day 7
  Daily Body Weight of Tested Female Mice (Mean ± SD): 25.7 ± 1.6 g
  Daily Body Weight of Tested Male Mice (Mean ± SD): 28.5 ± 0.7 g
ICR mice; Female
  Summary of toxic response of tested animals in 7 Days: Abnormality was not observed in 7 days of the test
ICR mice; Male
  Summary of toxic response of tested animals in 7 Days: Abnormality was not observed in 7 days of the test

## CS(=O)(=O)CCN1C(=O)CCC(N2C(=O)c3cccc(N)c3C2=O)C1=O (stereo not shown) [Example 13, 4-amino-2-(1-(2-methylsulfonylethyl)-2,6-dioxopiperidin-3-yl)isoindolin-1,3-dione]
[2]
  Length (cm, Mean ± SD) of colon: 6.9 ± 0.4 cm
  inhibition in vivo at 30 mg/kg: 100%
ICR mice; Day 1
  Daily Body Weight of Tested Female Mice (Mean ± SD): 18.8 ± 1.1 g
  Daily Body Weight of Tested Male Mice (Mean ± SD): 19.6 ± 0.7 g
ICR mice; Day 2
  Daily Body Weight of Tested Female Mice (Mean ± SD): 21.3 ± 0.3 g
  Daily Body Weight of Tested Male Mice (Mean ± SD): 23.1 ± 0.6 g
ICR mice; Day 3
  Daily Body Weight of Tested Female Mice (Mean ± SD): 21.8 ± 0.4 g
  Daily Body Weight of Tested Male Mice (Mean ± SD): 24.4 ± 0.9 g
ICR mice; Day 4
  Daily Body Weight of Tested Female Mice (Mean ± SD): 21.8 ± 0.4 g
  Daily Body Weight of Tested Male Mice (Mean ± SD): 24.4 ± 0.9 g
ICR mice; Day 5
  Daily Body Weight of Tested Female Mice (Mean ± SD): 23.0 ± 0.5 g
  Daily Body Weight of Tested Male Mice (Mean ± SD): 26.5 ± 0.5 g
ICR mice; Day 6
  Daily Body Weight of Tested Female Mice (Mean ± SD): 23.2 ± 0.9 g
  Daily Body Weight of Tested Male Mice (Mean ± SD): 28.3 ± 1.3 g
ICR mice; Day 7
  Daily Body Weight of Tested Female Mice (Mean ± SD): 23.6 ± 0.9 g
  Daily Body Weight of Tested Male Mice (Mean ± SD): 28.4 ± 0.8 g
ICR mice; Female
  Summary of toxic response of tested animals in 7 Days: Abnormality was not observed in 7 days of the test
ICR mice; Male
  Summary of toxic response of tested animals in 7 Days: Abnormality was not observed in 7 days of the test

## COCCN1C(=O)CCC(C)(N2C(=O)c3cccc(N)c3C2=O)C1=O (stereo not shown) [Example 15, 4-amino-2-(1-(2-methoxyethyl)-3-methyl-2,6-dioxopiperidin-3-yl)isoindolin-1,3-dione]
[2]
  Length (cm, Mean ± SD) of colon: 6.6 ± 0.4 cm
  inhibition in vivo at 30 mg/kg: 72.7%

## COCCN1C(=O)CCC(N2C(=O)c3ccc(F)cc3C2=O)C1=O (stereo not shown) [Example 21, 5-fluoro-2-(1-(2-methoxyethyl)-2,6-dioxopiperidin-3-yl)-isoindolin-1,3-dione]
[2]
  Length (cm, Mean ± SD) of colon: 6.9 ± 0.4 cm
  inhibition in vivo at 30 mg/kg: 100%

## COCCN1C(=O)CCC(N2C(=O)c3ccc(OC)c(N)c3C2=O)C1=O (stereo not shown) [Example 25, 4-amino-5-methoxy-2-(1-(2-methoxyethyl)-2,6-dioxopiperidin-3-yl)-isoindolin-1,3-dione]
[2]
  Length (cm, Mean ± SD) of colon: 6.7 ± 0.5 cm
  inhibition in vivo at 30 mg/kg: 81.8%
